Measurements reported in US20240261302A1, “METHODS OF TREATING NEURODEGENERATIVE DISEASES OR CONDITIONS” (FloraScience Inc., priority 2023, published 2024).

Columns and labels:
HT22 cells [1] = assay: Oxytosis/ferroptosis assay with erastin (Table 2); format: cell-based; details: Mus musculus, HT-22; erastin as inducer; method not given; read-out: Observed EC50 erastin
HT22 cells [2] = assay: Ferroptosis Assay (RSL3-induced cell death, MTT); format: cell-based, mouse; details: Mus musculus, HT-22; HT22 cells, 1 hr pretreatment, 50 nM RSL3, 16 hr, MTT; read-out: Observed EC50 RSL3
Method: Ferroptosis Assay: HT22 cells were seeded at 3,000 cells/well in 96-well tissue culture plates in DMEM plus 10% FBS and 1% antibiotics. After 24 hr of plating, the cells were pretreated with different concentrations of test compounds or a vehicle control for 1 hr followed by coincubation with 50 nM RSL3 to induce the cell death cascade. After 16 hr of treatment, cell viability was measured by the MTT assay. Optical absorbance was measured at 570 nm on a SpectraMax M5 microplate reader. Samples were analyzed in eight to sixteen wells per independent experiment (n=8-16). Results were presented as the percentage of the controls with vehicle alone.

SMILES	EC50 (HT22 cells [1])	EC50 (HT22 cells [2])
CCCCCc1cc(O)c(-c2cccc(C)c2)c(O)c1 [4-DI-CBND, 3′-methyl-4-pentyl-[1,1′-biphenyl]-2,6-diol]	9.6 µM	4200 nM
CCCCCc1cc(O)c2c(c1)OC(C)(C)c1ccc(CO)cc1-2 [11-OH-CBN, 9-(hydroxymethyl)-6,6-dimethyl-3-pentyl-6H-benzo[c]chromen-1-ol]	4.7 µM	1300 nM
CCCCCc1cc(O)c2c(c1)oc1c(C)ccc(C(C)C)c12 [CBF, 5-isopropyl-8-methyl-2-pentyl-9-oxa-4-fluorenol]	0.31 µM	150 nM
CCCCCc1cc(O)c2c(c1)OC(C)(C)C1CCC(C)=CC21 (centres unmarked) [D9-THC, 6,6,9-trimethyl-3-pentyl-6a,7,8,10a-tetrahydro-6H-benzo[c]chromen-1-ol]	9.4 µM	4100 nM
CCCCCc1cc(OC)c2c(c1)OC(C)(C)c1ccc(C)cc1-2 [CBN-OMe, 1-methoxy-6,6,9-trimethyl-3-pentyl-benzo[c]chromene]	> 10 µM	> 10000 nM
C=C(C)[C@@H]1CCC(C)=C[C@H]1c1c(O)cc(CCCCC)c(C(=O)O)c1O [CBDA, (1′R,2′R)-2,6-Dihydroxy-5′-methyl-4-pentyl-2′-(prop-1-en-2-yl)-1′,2′,3′,4′-tetrahydro[1,1′-biphenyl]-3-carboxylic acid]	> 10 µM	9300 nM
C=C(C)[C@@H]1CCC(C)=C[C@H]1c1c(O)cc(CCCCC)cc1O [CBD, 2-[(1R,6R)-6-Isopropenyl-3-methylcyclohex-2-en-1-yl]-5-pentylbenzene-1,3-diol]	8.8 µM	860 nM
CCCCCc1cc2c(c(O)c1C(=O)O)[C@@H]1C=C(C)CC[C@H]1C(C)(C)O2 [THCA, (6aR,10aR)-1-Hydroxy-6,6,9-trimethyl-3-pentyl-6a,7,8,10a-tetrahydro-6H-benzo[c]chromene-2-carboxylic acid]	> 10 µM	> 10000 nM
C=C(C)[C@@H]1CC[C@](C)(O)[C@H]2Oc3cc(CCCCC)cc(O)c3[C@@H]12 [CBE, (5aS,6S,9R,9aR)-6-methyl-3-pentyl-9-prop-1-en-2-yl-7,8,9,9a-tetrahydro-5aH-dibenzofuran-1,6-diol]	> 10 µM	> 10000 nM
CCCCCc1cc(O)c(C/C=C(\C)CCC=C(C)C)c(O)c1 [CBG, 2-[(2E)-3,7-Dimethylocta-2,6-dienyl]-5-pentyl-benzene-1,3-diol]	10.8 µM	3200 nM
Cc1cc(O)c2c(c1)OC(C)(C)c1ccc(C)cc1-2 [CBN-C1, 3-methyl-6,6,9-trimethyl-6H-benzo[c]chromen-1-ol]	6.9 µM	2200 nM
CCCCCCc1cc(O)c2c(c1)OC(C)(C)c1ccc(C)cc1-2 [CBN-C6, 3-hexyl-6,6,9-trimethyl-6H-benzo[c]chromen-1-ol]	2 µM	900 nM
CCCCCc1cc(O)c2c(c1)O[C@H]1[C@@H]2[C@H](C(C)C)CC[C@]1(C)O [H2CBE, (5aS,6S,9S,9aR)-9-isopropyl-6-methyl-3-pentyl-5a,6,7,8,9,9a-hexahydrodi-benzo[b,d]furan-1,6-diol]	9.2 µM	3500 nM
CCCCCc1cc(OC(C)=O)c2c(c1)OC(C)(C)c1ccc(C)cc1-2 [CBN-OAc, 1-acetoxy-6,6,9-trimethyl-3-pentyl-benzo[c]chromene]	1.9 µM	1300 nM
CCCc1cc(O)c2c(c1)OC(C)(C)C1CCC(C)=CC21 (centres unmarked) [THCV, 6,6,9-Trimethyl-3-propyl-6a,7,8,10a-tetrahydro-6H-benzo[c]chromen-1-ol]	3.4 µM	780 nM
CCCCCc1cc(O)c2c(c1)OC(C)(C)C1CCC(C)C=C21 (centres unmarked) [D10-THC, 6,6,9-trimethyl-3-pentyl-6a,7,8,9-tetrahydro-6H-benzo[c]chromen-1-ol]	0.62 µM	130 nM
CCCCCc1cc(O)c(CCC(C)CCCC(C)C)c(O)c1 (centres unmarked) [H4CBG, 2-(3,7-dimethyloctyl)-5-pentylbenzene-1,3-diol]	0.7 µM	400 nM
CCCCCc1cc(O)c2c(c1)OC(C)(C)C1=C2CC(C)CC1 (centres unmarked) [D6a,10a-THC, 6,6,9-trimethyl-3-pentyl-7,8,9,10-tetrahydro-6H-benzo[c]chromen-1-ol]	1.8 µM	700 nM
CCCCCc1cc(O)c2c(c1)OC1(C)CCC(=C(C)C)C2C1 (centres unmarked) [D4(8)-iso-THC, 3,4,5,6-tetrahydro-2-methyl-5-(1-methylethylidene)-9-pentyl-2,6-methano-2H-1-benzoxocin-7-ol]	1.5 µM	340 nM
CCc1cc(O)c2c(c1)OC(C)(C)c1ccc(C)cc1-2 [CBN-C2, 3-ethyl-6,6,9-trimethyl-6H-benzo[c]chromen-1-ol]	5.6 µM	1800 nM

SMILES	EC50 (HT22 cells [1])	EC50 (HT22 cells [2])
C=C(C)C1CCC(C)=CC1c1c(OC(C)=O)cc(CCCCC)cc1OC(C)=O (centres unmarked) [CBD-(OAc)2, 5′-methyl-4-pentyl-2′-(prop-1-en-2-yl)-1′,2′,3′,4′-tetrahydro-[1,1′-biphenyl]-2,6-diyl diacetate]	9.1 µM	2400 nM
C=C(C)c1ccc(C)cc1-c1c(O)cc(CCCCC)cc1O [CBND, 2,6-dihydroxy-4-pentyl-2′-isopropenyl-5′-methyl-1,1′-biphenyl]	15.4 µM	7700 nM
CCCCCc1cc2c3c(c1)OC(C)(C)C1CCC(C)(CC31)O2 (centres unmarked) [CBT, 1,5,5-trimethyl-9-pentyl-6,15-dioxa-tetracyclo[9.3.1.0^4,13.0^7,12]-pentadeca-7(12),8,10-triene]	> 10 µM	> 10000 nM
CCCCCc1cc(O)c([C@H]2CC(C)CC[C@@H]2C(C)C)c(O)c1 (stereo partly drawn) [H4CBD, 2-[(1S,6R)-6-Isopropyl-3-methylcyclohexyl]-5-pentylbenzene-1,3-diol]	0.3 µM	400 nM
CCCCCc1cc2c(c(O)c1C(=O)O)-c1cc(C)ccc1C(C)(C)O2 [CBNA, 1-hydroxy-6,6,9-trimethyl-3-pentyl-benzo[c]chromene-2-carboxylic acid]	> 10 µM	> 10000 nM
CCCc1cc(O)cc2c1-c1cc(C)ccc1C(C)(C)O2 [Abn-CBNV, 6,6,9-trimethyl-1-propyl-6H-benzo[c]chromen-3-ol]	9.5 µM	4900 nM
CCCCCc1cc(O)c2c(c1)OC(C)(C)C1CCC(C)CC21 (centres unmarked) [HHC, 6,6,9-trimethyl-3-pentyl-6a,7,8,9,10,10a-hexahydro-6H-benzo[c]chromen-1-ol]	0.5 µM	300 nM
CCCCCc1cc(O)c2c(c1)O[C@]1(C)CC[C@@H](C(C)C)[C@H]2C1 [iso-HHC, (2α,5α,6α)-(−)-3,4,5,6-tetrahydro-2-methyl-5-(1-methylethyl)-9-pentyl-2,6-methano-2H-1-benzoxocin-7-ol]	2.4 µM	800 nM
CCCCCc1cc(O)c2c(c1)OC(C)(CCC=C(C)C)C=C2 (centres unmarked) [CBC, 2-Methyl-2-(4-methylpent-3-enyl)-7-pentyl-5-chromenol]	8.7 µM	1100 nM
CCCCc1cc(O)c2c(c1)OC(C)(C)c1ccc(C)cc1-2 [CBN-C4, 3-butyl-6,6,9-trimethyl-6H-benzo[c]chromen-1-ol]	2.1 µM	1100 nM
CCCCCCCc1cc(O)c2c(c1)OC(C)(C)c1ccc(C)cc1-2 [CBN-C7, 3-heptyl-6,6,9-trimethyl-6H-benzo[c]chromen-1-ol]	3.8 µM	2000 nM
CCCCCc1cc(O)c2c(c1)O[C@@H]1CCC(C)=C[C@]21C(C)C [D8(9)-iso-THCBF, (5aR,9aR)-9a-isopropyl-8-methyl-3-pentyl-5a,6,7,9a-tetra-hydrodibenzo[b,d]furan-1-ol]	5.1 µM	1400 nM
C=C(C)C1CCC2(C)CC1c1c(O)cc(CCCCC)cc1O2 (centres unmarked) [D8(9)-iso-THC, 3,4,5,6-tetrahydro-2-methyl-5-(1-methylethenyl)-9-pentyl-2,6-methano-2H-1-benzoxocin-7-ol]	2.1 µM	330 nM
C=C(C)[C@@H]1CCC(C)=C[C@H]1c1c(O)cc(O)cc1CCCCC [Abn-CBD, 4-[(1R,6R)-3-methyl-6-(1-methylethenyl)-2-cyclohexen-1-yl]-5-pentyl-1,3-benzenediol]	8 µM	3900 nM
CCCc1cc(OC(C)=O)c2c(c1)OC(C)(C)c1ccc(C)cc1-2 [CBNV-OAc, 6,6,9-trimethyl-3-propyl-6H-benzo[c]chromen-1-yl acetate]	4 µM	1600 nM
CCCCCc1cc(O)c(C/C=C(\C)CCC=C(C)C)c(O)c1C(=O)O [CBGA, 3-[(2E)-3,7-Dimethylocta-2,6-dien-1-yl]-2,4-dihydroxy-6-pentylbenzoic acid]	> 10 µM	> 10000 nM
CCCCCc1cc(O)c2c(c1)OC1(C)CCC3C1C2C3(C)C (stereo not drawn) [CBL, (1aR-(1a alpha,3a alpha,8b alpha,8calpha))-1a,2,3,3a,8b,8c-hexahydro-1,1,3a-trimethyl-6-pentyl-1H-4-oxabenzo(f)-cyclobut(cd)inden-8-ol]	3.3 µM	770 nM
CCCCCc1cc(O)c([C@H]2C=C(C)CC[C@@H]2C(C)C)c(O)c1 [H2CBD, 2-[(1R,6R)-6-Isopropyl-3-methylcyclohex-2-en-1-yl]-5-pentylbenzene-1,3-diol]	4.8 µM	1100 nM
C=C(C)[C@@H]1CCC(C)=C[C@H]1c1c(O)cc(CCC)cc1O [CBDV, 2-[(1R,6R)-6-Isopropenyl-3-methylcyclohex-2-en-1-yl]-5-propylbenzene-1,3-diol]	3.8 µM	1000 nM
CCCCCc1cc(O)c(-c2cc(C)ccc2C(C)C)c(O)c1 [H2CBND, 2,6-dihydroxy-4-pentyl-2′-isopropyl-5′-methyl-1,1′-biphenyl]	5.7 µM	2400 nM
